From patent publication US7939552B2, “Benzyloxypropylamine derivative” (Nippon Zoki Pharmaceutical Co., Ltd., priority 2005, dated 2011)
Where a name gives a salt, the structure may show the parent alone.

Key:
human NK1 receptor = molecular target: T1, human NK1 receptor (Homo sapiens, UniProt P25103); experiment: Human NK1 receptor binding assay (3H-Sar9-SP, hNK1-CHO cells); conditions: room temperature 60 minutes
T1 construct: expressed in transfected cells; host or cells: CHO cells (hNK1-CHO)
T1 sequence (P25103 whole entry): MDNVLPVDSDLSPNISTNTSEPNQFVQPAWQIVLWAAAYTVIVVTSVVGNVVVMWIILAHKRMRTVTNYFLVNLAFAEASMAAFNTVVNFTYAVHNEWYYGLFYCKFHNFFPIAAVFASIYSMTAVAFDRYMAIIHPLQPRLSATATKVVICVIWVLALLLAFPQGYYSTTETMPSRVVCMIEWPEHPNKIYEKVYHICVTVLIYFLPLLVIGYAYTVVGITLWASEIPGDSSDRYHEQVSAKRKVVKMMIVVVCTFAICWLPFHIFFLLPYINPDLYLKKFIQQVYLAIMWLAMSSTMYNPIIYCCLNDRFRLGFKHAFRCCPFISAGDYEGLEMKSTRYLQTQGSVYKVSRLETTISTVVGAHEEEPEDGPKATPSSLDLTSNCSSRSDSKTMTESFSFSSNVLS
Experimental: A supernatant liquid was removed from an hNK1-CHO cell incubation flask in a confluent state, trypsin (0.25%)-EDTA (1 mmol/L) (Gibco) was added thereto and the cells were exfoliated and recovered. After they were washed with a buffer A (pH 7.5; 50 mmol/L Tris hydrochloride 50 mmol/L, 150 mmol/L NaCl and 0.02% BSA) for one time (at […] for 5 minutes), cell numbers were adjusted and re-floated on a buffer for assay {a buffer A to which 40 μg/mL bacitracin (Sigma), 4 μg/mL leupeptin (Sigma), 4 μg/mL chymostatin (Sigma) and 4 μg/mL phosphoramidon (Sigma) were added}. The hNK1-CHO cells (100 μL) were placed in a tube (TPX-12, Maruemu) in which 300 μL of the buffer for assay was charged so as to make cells 10^5 per tube, 50 μL of a hot solution (^3H-Sar^9-SP, final concentration: […]) and 50 μL of a substance to be tested were added (a system of 500 μL), stirred and made to react at room temperature for 60 minutes. After completion of the reaction, it was filtered through a GF/B filter (25 mm diameter, Whatman) which was previously dipped in 0.1% polyethyleneimine p-70 (Wako Pure Chemical), washed with the buffer A (4 mL each for three times), placed in a vial and dried at 60° C. for one night. After drying, 10 mL of a scintillator (AL-1, toluene base, Dojindo) was added thereto and dpm was measured by a liquid scintillation counter (for 5 minutes/vial).
With regard to a nonspecific binding, it was defined as the dpm when 10 μmol/L of the substance P was added instead of the substance to be tested. The experiment was conducted in duplicate and at least three experiments were repeated. IC50 value was calculated using a probit method (statistic library II, Yukms).

[1] = Pharmacokinetic test in blood by a single oral administration to guinea pigs; type: in vivo; conditions: male, Hartley, guinea pig, po, 100 mg/kg orally, plasma; for AUC(0-t): read-out: AUC 0-24 h; for Cmax: read-out: Cmax; for Tmax: read-out: Tmax; for half-life: read-out: t½ (converted)
Experimental: Male guinea pigs of a Hartley strain (SPF, Nippon SLC) were purchased and subjected to a preliminary breeding for one week and the normally grown ones were fasted for one night and used for the test. The compound of the present invention was suspended in 1 g/dL methyl cellulose solution and 100 mg/kg was orally administered in an administering dose of 5 mL/kg. After 0.5, 1, 2, 4, 8 and 24 hour(s) from the oral administration, about 0.4 mL of blood was collected from the vein of median of foreleg using a heparinized capillary. Plasma prepared by its centrifugation (at 12,000 rpm for 10 minutes) was stored at −80° C. until the measurement. Measurement of the concentration in blood was conducted by a UV-detecting HPLC method.

Compound	IC50 (human NK1 receptor) [nM]	other results
O=C(NCC(COCc1cc(C(F)(F)F)cc(C(F)(F)F)c1)c1ccc(F)cc1)c1cc[n+]([O-])cc1 (single isomer, unassigned; (+)) [(+)-Compound 21]	9	
O=C(NCC(COCc1cc(C(F)(F)F)cc(C(F)(F)F)c1)c1ccc(F)cc1)c1cc[n+]([O-])cc1 (single isomer, unassigned; (-)) [(−)-Compound 21]	1.5	
Cl.O=C(NCC(COCc1cc(C(F)(F)F)cc(C(F)(F)F)c1)c1ccccc1)C1CCNCC1 (centres unmarked) [Compound 4, N-[3-(3,5-Bis(trifluoromethyl)benzyloxy)-2-phenylpropyl]piperidine-4-carboxamide hydrochloride]	29.3	AUC(0-t) [1]: 28.2 µg·h/mL; Cmax [1]: 2000 ng/mL; Tmax [1]: 8 h
O=C(NCC(COCc1cc(C(F)(F)F)cc(C(F)(F)F)c1)c1ccccc1)c1cc[n+]([O-])cc1 (centres unmarked) [Compound 20, N-[3-(3,5-Bis(trifluoromethyl)benzyloxy)-2-phenylpropyl]-1-oxyisonicotinamide]	5.8	AUC(0-t) [1]: 87.3 µg·h/mL; Cmax [1]: 10900 ng/mL; Tmax [1]: 2 h; half-life [1]: 204 min
O=C(NCC(COCc1cc(C(F)(F)F)cc(C(F)(F)F)c1)c1ccccc1)c1ccc[n+]([O-])c1 (centres unmarked) [Compound 22, N-[3-(3,5-Bis(trifluoromethyl)benzyloxy)-2-phenylpropyl]-1-oxynicotinamide]	6.4	AUC(0-t) [1]: 200 µg·h/mL; Cmax [1]: 18300 ng/mL; Tmax [1]: 2 h; half-life [1]: 156 min
O=C(NCC(COCc1cc(C(F)(F)F)cc(C(F)(F)F)c1)c1ccc(F)cc1)c1ccc[n+]([O-])c1 (centres unmarked) [Compound 23, N-[3-(3,5-Bis(trifluoromethyl)benzyloxy)-2-(4-fluorophenyl)propyl]-1-oxynicotinamide]	5.4	AUC(0-t) [1]: 236 µg·h/mL; Cmax [1]: 17500 ng/mL; Tmax [1]: 4 h; half-life [1]: 210 min
C[n+]1ccc(C(=O)NCC(COCc2cc(C(F)(F)F)cc(C(F)(F)F)c2)c2ccccc2)cc1 (centres unmarked) [Compound 26, 4-[3-(3,5-Bis(trifluoromethyl)benzyloxy)-2-phenylpropylcarbamoyl]-1-methylpyridinium iodide]	5.9	
O=C(Cc1cc[n+]([O-])cc1)NCC(COCc1cc(C(F)(F)F)cc(C(F)(F)F)c1)c1ccccc1 (centres unmarked) [Compound 39, N-[3-(3,5-Bis(trifluoromethyl)benzyloxy)-2-phenylpropyl]-2-(1-oxypyridin-4-yl)acetamide]	7.3	AUC(0-t) [1]: 379 µg·h/mL; Cmax [1]: 25700 ng/mL; Tmax [1]: 8 h; half-life [1]: 192 min
O=C(Cc1ccc[n+]([O-])c1)NCC(COCc1cc(C(F)(F)F)cc(C(F)(F)F)c1)c1ccccc1 (centres unmarked) [Compound 41, N-[3-(3,5-Bis(trifluoromethyl)benzyloxy)-2-phenylpropyl]-2-(1-oxypyridin-3-yl)acetamide]	9.2	
O=C(C=Cc1ccc[n+]([O-])c1)NCC(COCc1cc(C(F)(F)F)cc(C(F)(F)F)c1)c1ccccc1 (centres unmarked) [Compound 54, N-[3-(3,5-Bis(trifluoromethyl)benzyloxy)-2-phenylpropyl]-3-(1-oxypyridin-3-yl)acrylamide]	8.5	
NCCC(=O)NCC(COCc1cc(C(F)(F)F)cc(C(F)(F)F)c1)c1ccccc1 (centres unmarked) [Compound 74, 3-Amino-N-[3-(3,5-bis(trifluoromethyl)benzyloxy)-2-phenylpropyl]propionamide hydrochloride]	33.6	
NCCC(=O)NCC(COCc1cc(C(F)(F)F)cc(C(F)(F)F)c1)c1ccc(F)cc1 (centres unmarked) [Compound 76, 3-Amino-N-[3-(3,5-bis(trifluoromethyl)benzyloxy)-2-(4-fluorophenyl)propyl]propionamide hydrochloride]	21	
NCCCCC(=O)NCC(COCc1cc(C(F)(F)F)cc(C(F)(F)F)c1)c1ccccc1 (centres unmarked) [Compound 78, N-[3-(3,5-Bis(trifluoromethyl)benzyloxy)-2-phenylpropyl]-5-aminopentanoicamide hydrochloride]	19	
O=C(O)CN1CCC(C(=O)NCC(COCc2cc(C(F)(F)F)cc(C(F)(F)F)c2)c2ccccc2)CC1 (centres unmarked) [Compound 80, {4-[3-(3,5-Bis(trifluoromethyl)benzyloxy)-2-phenylpropylcarbamoyl]piperidin-1-yl}acetic acid hydrochloride]	14.7	
O=C(NCC(COCc1cc(C(F)(F)F)cc(C(F)(F)F)c1)c1ccccc1)NC1CCNCC1 (centres unmarked) [Compound 86, 1-[3-(3,5-Bis(trifluoromethyl)benzyloxy)-2-phenylpropyl]-3-piperidin-4-ylurea hydrochloride]	6	
N-[3-(3,5-Bis(trifluoromethyl)benzyloxy)-2-(4-fluorophenyl)propyl]-N-methylpiperidine-4-carboxamide hydrochloride [Compound 97]	20.3	

The next lines start with results.

IC50 (human NK1 receptor) [nM]	Compound	other results
8.6	NC1CCC(C(=O)NCC(COCc2cc(C(F)(F)F)cc(C(F)(F)F)c2)c2ccccc2)CC1 (centres unmarked) [Compound 88, 4-Aminocyclohexanecarboxylic acid [3-(3,5-bis(trifluoromethyl)benzyloxy)-2-phenylpropyl]amide hydrochloride]	
44	O=C(CN1CCC(C(=O)O)CC1)NCC(COCc1cc(C(F)(F)F)cc(C(F)(F)F)c1)c1ccccc1 (centres unmarked) [Compound 90, 1-{[3-(3,5-Bis(trifluoromethyl)benzyloxy)-2-phenylpropylcarbamoyl]methyl}piperidine-4-carboxylic acid]	
43.5	O=C(CN1CCC(N2CCCCC2)CC1)NCC(COCc1cc(C(F)(F)F)cc(C(F)(F)F)c1)c1ccccc1 (centres unmarked) [Compound 91, N-[3-(3,5-Bis(trifluoromethyl)benzyloxy)-2-phenylpropyl]-2-[1,4′]bipiperidinyl-1′-ylacetamide dihydrochloride]	
42.2	CN(CC(COCc1cc(C(F)(F)F)cc(C(F)(F)F)c1)c1ccccc1)C(=O)C1CCNCC1 (centres unmarked) [Compound 93, N-[3-(3,5-Bis(trifluoromethyl)benzyloxy)-2-phenylpropyl]-N-methylpiperidine-4-carboxamide hydrochloride]	
15.4	CN(CC(COCc1cc(C(F)(F)F)cc(C(F)(F)F)c1)c1ccc(F)cc1)C(=O)C1CCNCC1 (centres unmarked) [Compound 95, N-[3-(3,5-Bis(trifluoromethyl)benzyloxy)-2-(4-fluorophenyl)propyl]-N-methylpiperidine-4-carboxamide hydrochloride]	
28.5	CN1CCC(C(=O)N(C)CC(COCc2cc(C(F)(F)F)cc(C(F)(F)F)c2)c2ccccc2)CC1 (centres unmarked) [Compound 96, N-[3-(3,5-Bis(trifluoromethyl)benzyloxy)-2-phenylpropyl]-N-methyl-1-methylpiperidine-4-carboxamide hydrochloride]	
27	CN(CC(COCc1cc(C(F)(F)F)cc(C(F)(F)F)c1)c1ccc(F)cc1)C(=O)c1ccncc1 (centres unmarked) [Compound 98, N-[3-(3,5-Bis(trifluoromethyl)benzyloxy)-2-(4-fluorophenyl)propyl]-N-methylisonicotinamide]	
23.8	CN(CC(COCc1cc(C(F)(F)F)cc(C(F)(F)F)c1)c1ccccc1)C(=O)c1cc[n+]([O-])cc1 (centres unmarked) [Compound 99, N-[3-(3,5-Bis(trifluoromethyl)benzyloxy)-2-phenylpropyl]-N-methyl-1-oxyisonicotinamide]	
11.9	CN(CC(COCc1cc(C(F)(F)F)cc(C(F)(F)F)c1)c1ccc(F)cc1)C(=O)c1ccnc(O)c1 (centres unmarked) [Compound 100, N-[3-(3,5-Bis(trifluoromethyl)benzyloxy)-2-(4-fluorophenyl)propyl]-2-hydroxy-N-methylisonicotinamide]	
35.5	CN(CC(COCc1cc(C(F)(F)F)cc(C(F)(F)F)c1)c1ccccc1)C(=O)CCN (centres unmarked) [Compound 102, N-[3-(3,5-Bis(trifluoromethyl)benzyloxy)-2-phenylpropyl]-N-methyl-3-aminopropionamide hydrochloride]	
6.5	CN(CC(COCc1cc(C(F)(F)F)cc(C(F)(F)F)c1)c1ccc(F)cc1)C(=O)CCN (centres unmarked) [Compound 104, 3-Amino-N-[3-(3,5-bis(trifluoromethyl)benzyloxy)-2-(4-fluorophenyl)propyl]-N-methylpropionamide hydrochloride]	
30.3	CN(CC(COCc1cc(C(F)(F)F)cc(C(F)(F)F)c1)c1ccccc1)C(=O)CCCCN (centres unmarked) [Compound 106, 5-Aminopentanoic acid [3-(3,5-bis(trifluoromethyl)benzyloxy)-2-phenylpropyl]methylamide hydrochloride]	
